According to ChEMBL document CHEMBL1201862, “PubChem BioAssay data set” (2004):
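A five-concentration, 48-hour dose response in 96-well plates underlies each endpoint, interpolated linearly between surrounding concentrations. GI50 is the concentration that inhibits growth by half.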 Activity calls are given as the source filed them. No stated cut-off is given here; in the data, active = GI50 up to about 1.1 µM and inactive = higher.

How the values were obtained:
Experiment in all cases: NCI anticancer screen, dose series, 48 h
A498 = test system: A498
SK-MEL-28 = test system: SK-MEL-28
Hs-578T = test system: Hs-578T
HOP-62 = test system: HOP-62
U-251 = test system: U-251
MDA-MB-231 = test system: MDA-MB-231
HCC 2998 = test system: HCC 2998
OVCAR-4 = test system: OVCAR-4
M14 = test system: M14
SK-MEL-5 = test system: SK-MEL-5
HOP-92 = test system: HOP-92
SK-MEL-2 = test system: SK-MEL-2
SR = test system: SR
DU-145 = test system: DU-145
T47D = test system: T47D
SF-539 = test system: SF-539
SW-620 = test system: SW-620
MCF7 = test system: MCF7
RXF 393 = test system: RXF 393
EKVX = test system: EKVX
SNB-19 = test system: SNB-19
OVCAR-8 = test system: OVCAR-8
NCI-H226 = test system: NCI-H226
UACC-62 = test system: UACC-62
TK-10 = test system: TK-10
IGROV-1 = test system: IGROV-1
UO-31 = test system: UO-31
KM12 = test system: KM12
HCT-15 = test system: HCT-15
UACC-257 = test system: UACC-257
PC-3 = test system: PC-3
CCRF-CEM = test system: CCRF-CEM
SK-OV-3 = test system: SK-OV-3
LOX IMVI = test system: LOX IMVI
HT-29 = test system: HT-29
SF-268 = test system: SF-268
COLO 205 = test system: COLO 205
SNB-75 = test system: SNB-75
RPMI-8226 = test system: RPMI-8226
NCI/ADR-RES = test system: NCI/ADR-RES
HCT-116 = test system: HCT-116
CAKI-1 = test system: CAKI-1
HL-60 = test system: HL-60
K562 = test system: K562
SF-295 = test system: SF-295
NCI-H460 = test system: NCI-H460
MDA-MB-435 = test system: MDA-MB-435
786-0 = test system: 786-0
A549 = test system: A549
ACHN = test system: ACHN
Malme-3M = test system: Malme-3M
NCI-H522 = test system: NCI-H522
NCI-H23 = test system: NCI-H23
MDA-N = test system: MDA-N
OVCAR-5 = test system: OVCAR-5
OVCAR-3 = test system: OVCAR-3
MOLT-4 = test system: MOLT-4
SN12C = test system: SN12C

With `O=C(NC1CCCCC1)c1cc2ccccc2cc1O` the GI50 (A498) was 25.4 µM (inactive), the GI50 (SK-MEL-28) was 49.3 µM (inactive) and the GI50 (Hs-578T) was 36.2 µM (inactive). For the same compound, the GI50 (HOP-62) was 35.7 µM (inactive), the GI50 (U-251) was 44.2 µM (inactive) and the GI50 (MDA-MB-231) was 61 µM (inactive). The GI50 (HCC 2998) was 23.5 µM (inactive), the GI50 (OVCAR-4) was 20.3 µM (inactive) and the GI50 (M14) was 21.9 µM (inactive). For the same compound, the GI50 (SK-MEL-5) was 19.6 µM (inactive), the GI50 (HOP-92) was 22.3 µM (inactive) and the GI50 (SK-MEL-2) was 23.3 µM (inactive). For the same compound, the GI50 (SR) was 38.7 µM (inactive), the GI50 (DU-145) was 43.2 µM (inactive) and the GI50 (T47D) was 42.6 µM (inactive). For the same compound, the GI50 (SF-539) was 24 µM (inactive), the GI50 (SW-620) was 35.2 µM (inactive) and the GI50 (MCF7) was 39.2 µM (inactive). The GI50 (RXF 393) was 30.5 µM (inactive), the GI50 (EKVX) was 34.1 µM (inactive) and the GI50 (SNB-19) was 31.1 µM (inactive). For the same compound, the GI50 (OVCAR-8) was 26.2 µM (inactive), the GI50 (NCI-H226) was 17.3 µM (inactive) and the GI50 (UACC-62) was 27 µM (inactive). For the same compound, the GI50 (TK-10) was 73.3 µM (inactive), the GI50 (IGROV-1) was 35.5 µM (inactive) and the GI50 (UO-31) was 32.4 µM (inactive). The GI50 (KM12) was 34.2 µM (inactive), the GI50 (HCT-15) was 26.4 µM and the GI50 (UACC-257) was 36.6 µM (inactive). For the same compound, the GI50 (PC-3) was 28.8 µM (inactive), the GI50 (CCRF-CEM) was 38.9 µM (inactive) and the GI50 (SK-OV-3) was 49.1 µM (inactive). The GI50 (LOX IMVI) was 38.8 µM (inactive), the GI50 (HT-29) was 20.4 µM (inactive) and the GI50 (SF-268) was 46.1 µM (inactive). For the same compound, the GI50 (COLO 205) was 53.1 µM (inactive), the GI50 (SNB-75) was 45.5 µM (inactive) and the GI50 (RPMI-8226) was 17.7 µM (inactive). The GI50 (NCI/ADR-RES) was 17.7 µM (inactive), the GI50 (HCT-116) was 18.7 µM (inactive) and the GI50 (CAKI-1) was 47 µM (inactive). The GI50 (HL-60) was 22.6 µM (inactive), the GI50 (K562) was 27.7 µM (inactive) and the GI50 (SF-295) was 29.9 µM (inactive). The GI50 (NCI-H460) was 26.1 µM (inactive), the GI50 (MDA-MB-435) was 29.2 µM (inactive) and the GI50 (786-0) was 26.3 µM (inactive).

With `CO[C@@H]1C[C@H]2[C@@H]3CC[C@H]([C@H](C)COC(C)=O)[C@@]3(C)CC[C@@H]2[C@@]2(C)CC[C@H]3C[C@]312` the GI50 (A498) was > 100 µM (inactive), the GI50 (SK-MEL-28) was > 100 µM (inactive) and the GI50 (Hs-578T) was > 100 µM (inactive). The GI50 (A549) was > 100 µM (inactive), the GI50 (HOP-62) was > 100 µM (inactive) and the GI50 (U-251) was > 100 µM (inactive). For the same compound, the GI50 (ACHN) was > 100 µM (inactive), the GI50 (Malme-3M) was > 100 µM (inactive) and the GI50 (MDA-MB-231) was > 100 µM (inactive). For the same compound, the GI50 (HCC 2998) was > 100 µM (inactive), the GI50 (OVCAR-4) was > 100 µM (inactive) and the GI50 (M14) was > 100 µM (inactive). For the same compound, the GI50 (NCI-H522) was > 100 µM (inactive), the GI50 (SK-MEL-5) was > 100 µM (inactive) and the GI50 (HOP-92) was 73.5 µM (inactive). For the same compound, the GI50 (SR) was > 100 µM (inactive), the GI50 (DU-145) was > 100 µM (inactive) and the GI50 (T47D) was > 100 µM (inactive). For the same compound, the GI50 (SF-539) was > 100 µM (inactive), the GI50 (SW-620) was > 100 µM (inactive) and the GI50 (MCF7) was 81.3 µM (inactive). For the same compound, the GI50 (RXF 393) was > 100 µM (inactive), the GI50 (EKVX) was > 100 µM (inactive) and the GI50 (SNB-19) was > 100 µM (inactive). The GI50 (OVCAR-8) was > 100 µM (inactive), the GI50 (NCI-H226) was > 100 µM (inactive) and the GI50 (NCI-H23) was > 100 µM (inactive). The GI50 (TK-10) was > 100 µM (inactive), the GI50 (IGROV-1) was > 100 µM (inactive) and the GI50 (UO-31) was > 100 µM (inactive). For the same compound, the GI50 (KM12) was > 100 µM (inactive), the GI50 (MDA-N) was > 100 µM (inactive) and the GI50 (HCT-15) was over 100 µM. The GI50 (UACC-257) was > 100 µM (inactive), the GI50 (PC-3) was > 100 µM (inactive) and the GI50 (CCRF-CEM) was > 100 µM (inactive). For the same compound, the GI50 (OVCAR-5) was > 100 µM (inactive), the GI50 (LOX IMVI) was > 100 µM (inactive) and the GI50 (HT-29) was > 100 µM (inactive). For the same compound, the GI50 (OVCAR-3) was > 100 µM (inactive), the GI50 (SF-268) was > 100 µM (inactive) and the GI50 (COLO 205) was 34 µM (inactive). The GI50 (SNB-75) was > 100 µM (inactive), the GI50 (MOLT-4) was > 100 µM (inactive) and the GI50 (RPMI-8226) was > 100 µM (inactive). The GI50 (NCI/ADR-RES) was > 100 µM (inactive), the GI50 (HCT-116) was > 100 µM (inactive) and the GI50 (CAKI-1) was > 100 µM (inactive). The GI50 (HL-60) was > 100 µM (inactive), the GI50 (SN12C) was > 100 µM (inactive) and the GI50 (K562) was 63.1 µM (inactive). The GI50 (SF-295) was > 100 µM (inactive), the GI50 (NCI-H460) was > 100 µM (inactive) and the GI50 (MDA-MB-435) was > 100 µM (inactive). The GI50 (786-0) was > 100 µM (inactive).
